*1 amine or outer side, *2 acyl side, *3 side chain or, on linkers, in order; H or OH if unused. Where a SMILES comes first, the peptide text is derived from it. Side-chain parts run from the residue outwards. [ ]: non-standard residue; d: D form. The star is where a group is joined. Isobutyryl(2-(3-CN-5-F-Ph)) = CC(C)(C(=O)*)c1cc(F)cc(C#N)c1; C20 diacid = O=C(O)CCCCCCCCCCCCCCCCCCC(=O)*; γGlu = O=C(O)[C@H](CCC(=O)[*:2])N[*:1]; X65 = CC(C)(C(=O)*)c1cc(N)cc(F)c1; X14 = CC(C)(C(=O)*)n1cc(Br)cn1; X25 = CC(C)(C(=O)*)n1cc(F)cn1; αMeL = CC(C)C[C@](C)(N)C(=O)O; Orn = NCCC[C@H](N)C(=O)O; AEEA = NCCOCCOCC(=O)O; Aib = CC(C)(N)C(=O)O; βAla = NCCC(=O)O
Experiments:
Type in all cases: cell-based
[1] = biological target: T1, GLP-1 receptor (Homo sapiens, UniProt P43220); assay: HitHunter cAMP assay, GLP-1 receptor; settings: for EC50: CHO cells stably expressing human GLP-1 receptor, cAMP accumulation, 30 min, read-out: EC50 GLP-1R; for Emax: CHO cells, cAMP, normalized to maximum signal from GLP-1 (high) and DMSO (low), read-out: Emax GLP-1R
[2] = biological target: T2, GIP receptor (Homo sapiens, UniProt P48546); assay: HitHunter cAMP assay, GIP receptor; settings: for EC50: CHO cells stably expressing GIP receptor, cAMP accumulation, 30 min, read-out: EC50 GIP-1R; for Emax: CHO cells, cAMP, normalized to maximum signal from GIP (high) and DMSO (low), read-out: Emax GIP-1R
T2 sequence (P48546 22-466): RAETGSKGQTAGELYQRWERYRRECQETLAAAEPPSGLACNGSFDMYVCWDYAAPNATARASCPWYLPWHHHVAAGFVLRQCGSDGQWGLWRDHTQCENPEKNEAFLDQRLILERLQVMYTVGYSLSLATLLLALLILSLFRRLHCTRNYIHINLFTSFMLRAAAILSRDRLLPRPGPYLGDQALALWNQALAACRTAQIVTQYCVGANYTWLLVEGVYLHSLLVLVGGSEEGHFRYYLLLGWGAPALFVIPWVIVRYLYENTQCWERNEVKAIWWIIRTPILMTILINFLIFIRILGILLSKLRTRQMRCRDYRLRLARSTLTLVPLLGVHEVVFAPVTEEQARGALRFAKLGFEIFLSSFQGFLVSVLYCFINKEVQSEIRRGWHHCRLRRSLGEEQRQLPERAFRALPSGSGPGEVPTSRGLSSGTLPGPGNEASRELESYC

[3] = biological target: T2, GIP receptor; assay: PathHunter β-arrestin assay, GIP receptor; design: host or cells: PathHunter CHO-K1 GIPR β-Arrestin Cell Line; settings: β-arrestin-2 recruitment, PathHunter CHO-K1 GIPR β-Arrestin Cell Line, 90 min at 37° C.; normalized to GIP; read-out: GIPR β Arrestin EC50
[4] = biological target: T1, GLP-1 receptor; assay: PathHunter β-arrestin assay, GLP-1 receptor; design: host or cells: PathHunter CHO-K1 GLP1R β-Arrestin Cell Line; settings: β-arrestin-2 recruitment, PathHunter CHO-K1 GLP1R β-Arrestin Cell Line, 90 min at 37° C.; normalized to GLP-1; read-out: GLP-1R β Arrestin EC50

T1 sequence (P43220 24-463): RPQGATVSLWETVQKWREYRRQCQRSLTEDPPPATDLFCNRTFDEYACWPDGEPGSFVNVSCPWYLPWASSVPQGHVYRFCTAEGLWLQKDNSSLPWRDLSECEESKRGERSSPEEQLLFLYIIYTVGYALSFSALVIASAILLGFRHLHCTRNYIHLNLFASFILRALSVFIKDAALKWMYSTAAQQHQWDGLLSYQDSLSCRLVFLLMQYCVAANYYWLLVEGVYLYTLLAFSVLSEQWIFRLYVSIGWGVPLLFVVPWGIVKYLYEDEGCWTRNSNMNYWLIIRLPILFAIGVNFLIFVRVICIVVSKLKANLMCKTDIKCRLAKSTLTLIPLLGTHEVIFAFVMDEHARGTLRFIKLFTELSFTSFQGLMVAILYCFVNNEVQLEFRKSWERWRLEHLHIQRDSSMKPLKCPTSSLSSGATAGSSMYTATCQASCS

Row | Compound | EC50 [1] [nM] | Emax [1] [%] | EC50 [2] [nM] | Emax [2] [%] | EC50 [3] [nM] | EC50 [4] [nM]
1 | CC[C@H](C)[C@H](NC(=O)[C@H](CC(C)C)NC(=O)[C@H](Cc1c[nH]c2ccccc12)NC(=O)[C@H](CCC(N)=O)NC(=O)[C@@H](NC(=O)[C@H](Cc1ccccc1)NC(=O)[C@H](C)NC(=O)[C@H](CCCCNC(=O)COCCOCCNC(=O)COCCOCCNC(=O)CC[C@H](NC(=O)CCCCCCCCCCCCCCCCCCC(=O)O)C(=O)O)NC(=O)[C@H](CCC(N)=O)NC(=O)[C@H](C)NC(=O)[C@@H](NC(=O)[C@H](CCCCN)NC(=O)[C@H](CC(=O)O)NC(=O)[C@H](CC(C)C)NC(=O)C(C)(C)NC(=O)[C@@H](NC(=O)[C@H](CO)NC(=O)[C@H](Cc1ccc(O)cc1)NC(=O)[C@H](CC(=O)O)NC(=O)[C@H](CO)NC(=O)[C@@H](NC(=O)[C@H](Cc1ccccc1)NC(=O)[C@@H](NC(=O)CNC(=O)[C@@H](CC(=O)O)NC(=O)CCNC(=O)C(C)(C)c1cc(F)cc(C#N)c1)[C@@H](C)O)[C@@H](C)O)[C@@H](C)CC)[C@@H](C)CC)C(C)C)C(=O)N[C@@H](C)C(=O)NCC(=O)NCC(=O)N1CCC[C@H]1C(=O)N[C@@H](CO)C(=O)N[C@@H](CO)C(=O)NCC(=O)N[C@@H](C)C(=O)N1CCC[C@H]1C(=O)N1CCC[C@H]1C(=O)N1CCC[C@H]1C(=O)N[C@@H](CO)C(N)=O [Compound 127] ({Isobutyryl(2-(3-CN-5-F-Ph))-βAla}-[dD]GTFTSDYSI[Aib]LDKIAQK([AEEA-AEEA-γGlu-C20 diacid])AFVQWLIAGGPSSGAPPPS-NH2) | 1 to 10 | 93 | 100 to 1000 | 82 | > 1000 | > 1000
2 | CC[C@H](C)[C@H](NC(=O)[C@H](CC(C)C)NC(=O)[C@H](Cc1c[nH]c2ccccc12)NC(=O)[C@H](CCC(N)=O)NC(=O)[C@@H](NC(=O)[C@H](Cc1ccccc1)NC(=O)[C@H](C)NC(=O)[C@H](CCCCNC(=O)COCCOCCNC(=O)COCCOCCNC(=O)CC[C@H](NC(=O)CCCCCCCCCCCCCCCCCCC(=O)O)C(=O)O)NC(=O)[C@H](CCC(N)=O)NC(=O)[C@H](C)NC(=O)[C@@H](NC(=O)[C@H](CCCCN)NC(=O)[C@H](CC(=O)O)NC(=O)[C@H](CC(C)C)NC(=O)C(C)(C)NC(=O)[C@@H](NC(=O)[C@H](CO)NC(=O)[C@H](Cc1ccc(O)cc1)NC(=O)[C@H](CC(=O)O)NC(=O)[C@H](CO)NC(=O)[C@@H](NC(=O)[C@H](Cc1ccccc1)NC(=O)[C@@H](NC(=O)CNC(=O)[C@H](CCC(=O)O)NC(=O)CCNC(=O)C(C)(C)n1cc(Br)cn1)[C@@H](C)O)[C@@H](C)O)[C@@H](C)CC)[C@@H](C)CC)C(C)C)C(=O)N[C@@H](C)C(=O)NCC(=O)NCC(=O)N1CCC[C@H]1C(=O)N[C@@H](CO)C(=O)N[C@@H](CO)C(=O)NCC(=O)N[C@@H](C)C(=O)N1CCC[C@H]1C(=O)N1CCC[C@H]1C(=O)N1CCC[C@H]1C(=O)N[C@@H](CO)C(N)=O [Compound 131] ({X14-βAla}-EGTFTSDYSI[Aib]LDKIAQK([AEEA-AEEA-γGlu-C20 diacid])AFVQWLIAGGPSSGAPPPS-NH2) | 0.1 to 1 | 102 | 10 to 100 | 96 | > 1000 | > 1000
3 | CC[C@H](C)[C@H](NC(=O)[C@H](CC(C)C)NC(=O)[C@H](Cc1c[nH]c2ccccc12)NC(=O)[C@H](CCC(N)=O)NC(=O)[C@@H](NC(=O)[C@H](Cc1ccccc1)NC(=O)[C@H](C)NC(=O)[C@H](CCCCNC(=O)COCCOCCNC(=O)COCCOCCNC(=O)CC[C@H](NC(=O)CCCCCCCCCCCCCCCCCCC(=O)O)C(=O)O)NC(=O)[C@H](CCC(N)=O)NC(=O)[C@H](C)NC(=O)[C@@H](NC(=O)[C@H](CCCCN)NC(=O)[C@H](CC(=O)O)NC(=O)[C@H](CC(C)C)NC(=O)C(C)(C)NC(=O)[C@@H](NC(=O)[C@H](CO)NC(=O)[C@H](Cc1ccc(O)cc1)NC(=O)[C@H](CC(=O)O)NC(=O)[C@H](CO)NC(=O)[C@@H](NC(=O)[C@H](Cc1ccccc1)NC(=O)[C@@H](NC(=O)CNC(=O)[C@H](CCC(=O)O)NC(=O)CCNC(=O)C(C)(C)n1cc(F)cn1)[C@@H](C)O)[C@@H](C)O)[C@@H](C)CC)[C@@H](C)CC)C(C)C)C(=O)N[C@@H](C)C(=O)NCC(=O)NCC(=O)N1CCC[C@H]1C(=O)N[C@@H](CO)C(=O)N[C@@H](CO)C(=O)NCC(=O)N[C@@H](C)C(=O)N1CCC[C@H]1C(=O)N1CCC[C@H]1C(=O)N1CCC[C@H]1C(=O)N[C@@H](CO)C(N)=O [Compound 132] ({X25-βAla}-EGTFTSDYSI[Aib]LDKIAQK([AEEA-AEEA-γGlu-C20 diacid])AFVQWLIAGGPSSGAPPPS-NH2) | < 0.1 | 98 | 10 to 100 | 104 | > 1000 | < 1000
4 | CC[C@H](C)[C@H](NC(=O)[C@H](CC(C)C)NC(=O)[C@H](Cc1c[nH]c2ccccc12)NC(=O)[C@H](CCC(N)=O)NC(=O)[C@@H](NC(=O)[C@H](Cc1ccccc1)NC(=O)[C@H](C)NC(=O)[C@H](CCCCNC(=O)COCCOCCNC(=O)COCCOCCNC(=O)CC[C@H](NC(=O)CCCCCCCCCCCCCCCCCCC(=O)O)C(=O)O)NC(=O)[C@H](CCC(N)=O)NC(=O)[C@H](C)NC(=O)[C@@H](NC(=O)[C@H](CCCCN)NC(=O)[C@H](CC(=O)O)NC(=O)[C@H](CC(C)C)NC(=O)C(C)(C)NC(=O)[C@@H](NC(=O)[C@H](CO)NC(=O)[C@H](Cc1ccc(O)cc1)NC(=O)[C@H](CC(=O)O)NC(=O)[C@H](CO)NC(=O)[C@@H](NC(=O)[C@H](Cc1ccccc1)NC(=O)[C@@H](NC(=O)CNC(=O)[C@H](CCC(=O)O)NC(=O)CCNC(=O)C(C)(C)c1cc(N)cc(F)c1)[C@@H](C)O)[C@@H](C)O)[C@@H](C)CC)[C@@H](C)CC)C(C)C)C(=O)N[C@@H](C)C(=O)NCC(=O)NCC(=O)N1CCC[C@H]1C(=O)N[C@@H](CO)C(=O)N[C@@H](CO)C(=O)NCC(=O)N[C@@H](C)C(=O)N1CCC[C@H]1C(=O)N1CCC[C@H]1C(=O)N1CCC[C@H]1C(=O)N[C@@H](CO)C(N)=O [Compound 133] ({X65-βAla}-EGTFTSDYSI[Aib]LDKIAQK([AEEA-AEEA-γGlu-C20 diacid])AFVQWLIAGGPSSGAPPPS-NH2) | 0.1 to 1 | 104 | 100 to 1000 | 107 | > 1000 | > 1000
5 | CC[C@H](C)[C@H](NC(=O)[C@H](CC(C)C)NC(=O)[C@H](Cc1ccc(O)cc1)NC(=O)[C@@H](CCC(=O)O)NC(=O)[C@@H](NC(=O)[C@H](Cc1ccccc1)NC(=O)[C@H](CCC(=O)O)NC(=O)C(C)(C)NC(=O)[C@H](CCC(N)=O)NC(=O)[C@H](C)NC(=O)[C@H](CCCCNC(=O)COCCOCCNC(=O)COCCOCCNC(=O)CC[C@H](NC(=O)CCCCCCCCCCCCCCCCCCC(=O)O)C(=O)O)NC(=O)[C@H](CCCN)NC(=O)[C@H](CC(=O)O)NC(=O)[C@H](CC(C)C)NC(=O)[C@](C)(CC(C)C)NC(=O)[C@@H](NC(=O)[C@H](CO)NC(=O)[C@H](Cc1ccc(O)cc1)NC(=O)[C@H](CC(=O)O)NC(=O)[C@H](CO)NC(=O)[C@@H](NC(=O)[C@H](Cc1ccccc1)NC(=O)[C@@H](NC(=O)CNC(=O)[C@H](CCC(=O)O)NC(=O)CCNC(=O)C(C)(C)c1cc(F)cc(C#N)c1)[C@@H](C)O)[C@@H](C)O)[C@@H](C)CC)[C@@H](C)CC)C(=O)N[C@@H](CCC(=O)O)C(=O)NCC(=O)NCC(=O)N1CCC[C@H]1C(=O)N[C@@H](CO)C(=O)N[C@@H](CO)C(=O)NCC(=O)N[C@@H](C)C(=O)N1CCC[C@H]1C(=O)N1CCC[C@H]1C(=O)N1CCC[C@H]1C(=O)N[C@@H](CO)C(N)=O [Compound 134] ({Isobutyryl(2-(3-CN-5-F-Ph))-βAla}-EGTFTSDYSI[αMeL]LD[Orn]K([AEEA-AEEA-γGlu-C20 diacid])AQ[Aib]EFI[dE]YLIEGGPSSGAPPPS-NH2) | 0.1 to 1 | 102 | 1 to 10 | 109 | > 1000 | > 1000
